In ChEMBL document CHEMBL5108059, “Discovery of 2-Methyl-2-(4-(2-methyl-8-(1H-pyrrolo[2,3-b]pyridin-6-yl)-1H-naphtho[1,2-d]imidazol-1-yl)phenyl)propanenitrile as a Novel PI3K/mTOR Inhibitor with Enhanced Antitumor Efficacy In Vitro and In Vivo” (J Med Chem, 2022):
Calls of active or inactive are those of the source. The rule behind the calls is not given here.

Tests used:
[1] = Toxicity in BALB/c nude mouse xenografted with human HeLa cells assessed as lethality at 15 to 60 mg/kg, IG administered daily for 30 days and measured every 2 days; format: organism-based; settings: in vivo, po, 720 h, dose 15-60 mg/kg, time 30 day
HeLa [2] = experiment: Antitumor activity against human HeLa cells xenografted in BALB/c nude mouse assessed as tumor growth inhibition at 30 mg/kg, IG administered daily for 30 days and measured every 2 days relative to control; format: functional; settings: po, 720 h, time 30 day, read-out: TGI
NCI-H3122 = experiment: Antiproliferative activity against human NCI-H3122 cells assessed as inhibition of cell growth incubated for 48 to 72 hrs by MTT assay; format: functional, cell-based
[3] = Toxicity in BALB/c nude mouse xenografted with human SW620 cells assessed as lethality at 15 to 60 mg/kg, IG administered daily for 30 days and measured every 2 days; format: organism-based, SW-620; settings: in vivo, po, 720 h, dose 15-60 mg/kg, time 30 day
HeLa [4] = experiment: Inhibition of PI3K/mTOR signalling pathway in human HeLa cells assessed as inhibition of S6 protein phosphorylation incubated for 24 hrs by Western blot analysis; format: cell-based; settings: dose 0.3125-2.5 µM, DDE = dose-dependent effect
Mus musculus = experiment: In vivo inhibition of PI3K/mTOR signalling pathway in BALB/c nude mouse xenografted with human HeLa cells assessed as downregulation of Akt phosphorylation at Ser473 residue in tumor at 15 to 60 mg/kg, IG administered daily for 30 days; format: functional, organism-based; settings: dose 15-60 mg/kg, time 30.0 day
SW-620 = experiment: Inhibition of colony formation in human SW620 cells assessed as reduction in colony forming ability at 1.25 uM incubated for 15 days by crystal violet staining based analysis; format: functional; settings: SW-620, 360 h, time 15 day
HeLa [5] = experiment: Induction of apoptosis in human HeLa cells assessed as dead cells at 0.625 uM incubated for 36 hrs by Annexin V-FITC/PI staining based flow cytometric analysis (reference value: 0.44 %); format: functional
[6] = molecular target: T1, Phosphatidylinositol 4,5-bisphosphate 3-kinase catalytic subunit delta isoform (Homo sapiens, UniProt O00329); experiment: Inhibition of PI3Kdelta (unknown origin) using L-alpha-phosphatidylinositol as substrate incubated for 60 mins in presence of ATP by Kinase Glo luminescence assay
T1 sequence (O00329 whole entry): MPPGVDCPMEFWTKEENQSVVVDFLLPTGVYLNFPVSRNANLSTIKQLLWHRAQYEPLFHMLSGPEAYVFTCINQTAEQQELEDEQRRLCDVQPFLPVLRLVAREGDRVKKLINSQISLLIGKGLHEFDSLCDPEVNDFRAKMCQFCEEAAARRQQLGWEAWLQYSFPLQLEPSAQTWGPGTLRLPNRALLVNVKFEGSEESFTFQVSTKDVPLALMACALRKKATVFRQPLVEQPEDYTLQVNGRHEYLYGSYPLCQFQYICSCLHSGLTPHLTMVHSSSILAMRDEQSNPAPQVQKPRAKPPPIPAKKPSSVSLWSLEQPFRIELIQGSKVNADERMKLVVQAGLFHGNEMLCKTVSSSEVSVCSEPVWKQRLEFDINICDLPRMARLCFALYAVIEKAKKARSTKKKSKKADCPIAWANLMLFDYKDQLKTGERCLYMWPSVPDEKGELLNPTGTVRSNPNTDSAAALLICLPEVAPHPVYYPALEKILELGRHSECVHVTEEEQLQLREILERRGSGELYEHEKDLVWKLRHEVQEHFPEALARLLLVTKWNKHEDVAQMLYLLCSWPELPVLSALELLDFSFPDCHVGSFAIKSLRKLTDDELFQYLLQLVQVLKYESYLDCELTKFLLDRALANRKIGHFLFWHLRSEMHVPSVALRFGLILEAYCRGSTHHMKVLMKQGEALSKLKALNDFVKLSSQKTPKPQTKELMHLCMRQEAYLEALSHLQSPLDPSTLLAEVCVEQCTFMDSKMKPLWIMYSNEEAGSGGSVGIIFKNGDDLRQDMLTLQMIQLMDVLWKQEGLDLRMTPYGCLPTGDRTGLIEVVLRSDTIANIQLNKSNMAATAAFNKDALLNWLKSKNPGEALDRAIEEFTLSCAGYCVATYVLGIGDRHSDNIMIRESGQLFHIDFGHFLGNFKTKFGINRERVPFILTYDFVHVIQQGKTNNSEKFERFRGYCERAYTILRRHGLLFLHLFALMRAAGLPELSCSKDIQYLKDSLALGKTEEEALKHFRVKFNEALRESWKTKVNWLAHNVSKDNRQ

HeLa [7] = experiment: Induction of apoptosis in human HeLa cells assessed as dead cells at 0.15625 uM incubated for 36 hrs by Annexin V-FITC/PI staining based flow cytometric analysis (reference value: 0.44 %); format: functional; settings: 0.1562 µM
[8] = molecular target: Serine/threonine-protein kinase mTOR (Homo sapiens, UniProt P42345); experiment: Inhibition of N-terminal FLAG-tagged recombinant human mTOR (1362 to end residue) using ULight-4EBP1 peptide as substrate incubated for 30 mins in presence of ATP by Lance ultra assay
HeLa [9] = experiment: Antitumor activity against human HeLa cells xenografted in BALB/c nude mouse assessed as tumor growth inhibition at 15 mg/kg, IG administered daily for 30 days and measured every 2 days relative to control; format: functional; settings: po, 720 h, time 30 day, read-out: TGI
[10] = Toxicity in BALB/c nude mouse xenografted with human HeLa cells assessed as pathological changes in kidney at 60 mg/kg, IG administered daily for 30 days by hematoxylin and eosin staining based microscopic analysis; format: organism-based; settings: in vivo, po, 720 h, time 30 day
HeLa [11] = experiment: Antitumor activity against human HeLa cells xenografted in BALB/c nude mouse assessed as tumor growth inhibition at 60 mg/kg, IG administered daily for 30 days and measured every 2 days relative to control; format: functional; settings: po, 720 h, time 30 day, read-out: TGI
L02 = experiment: Cytotoxicity against human L02 cells assessed as reduction in cell viability at 0.3125 to 10 uM incubated for 48 to 72 hrs by MTT assay; format: toxicity, cell-based; settings: l02, 10 µM, dose lower 0.3125 µM, time lower 48 hrs, dose upper 10 µM, time upper 72 hrs
[12] = Toxicity in BALB/c nude mouse xenografted with human HeLa cells assessed as pathological changes in liver at 60 mg/kg, IG administered daily for 30 days by hematoxylin and eosin staining based microscopic analysis; format: organism-based; settings: in vivo, po, 720 h, time 30 day
HeLa [13] = experiment: Induction of apoptosis in human HeLa cells assessed as late apoptotic cells at 0.625 uM incubated for 36 hrs by Annexin V-FITC/PI staining based flow cytometric analysis (reference value: 1.4 %); format: functional
HeLa [14] = experiment: Induction of apoptosis in human HeLa cells xenografted in BALB/c nude mouse at 15 to 60 mg/kg, IG administered daily for 30 days by TUNEL assay; format: functional, organism-based; settings: dose 15-60 mg/kg, time 30.0 day
HeLa [15] = experiment: Induction of cell cycle arrest in human HeLa cells assessed as accumulation of cells at G0/G1 phase measured after 24 hrs by propidium iodide staining based flow cytometry analysis; format: functional; settings: dose 0.15625-2.5 µM, DDE = dose-dependent effect
HeLa [16] = experiment: Inhibition of colony formation in human HeLa cells assessed as reduction in colony forming ability incubated for 15 days by crystal violet staining based analysis; format: functional, cell-based; settings: dose 0.15625-1.25 µM, time 15.0 day, DDE = dose-dependent effect

In the case of `Cc1nc2cnc3ccc(-c4cnc5[nH]ccc5c4)cc3c2n1-c1ccc(C(C)(C)C#N)nc1`, the Activity [1] is reported as “Non-Toxic”, the inhibition in vivo at 30 mg/kg (HeLa [2]) is reported as 73.5% and the IC50 (NCI-H3122) is reported as 0.29 µM. For the same compound, the Activity [3] was “Non-Toxic”, the inhibition (HeLa [4]) was “Dde” and the inhibition (Mus musculus) was “Active”. It also gave an inhibition at 1.25 µM (SW-620) of 100%, an Activity (HeLa [5]) of 2.75% and an IC50 [6] of 0.007 µM. It also gave an Activity (HeLa [7]) of 0.4%, an IC50 [8] of 0.0213 µM and an inhibition in vivo at 15 mg/kg (HeLa [9]) of 60.8%. The Activity [10] was “Non-Toxic”, the inhibition in vivo at 60 mg/kg (HeLa [11]) was 80.2% and the Activity (L02) was “Non-Toxic”. The Activity [12] was “Non-Toxic”, the Activity (HeLa [13]) was 8.81% and the Activity (HeLa [14]) was “Active”. The Activity (HeLa [15]) was “Dde” and the inhibition (HeLa [16]) was “Dde”.
